Measurements from US20050124589A1, “New use, pharmaceutical preparations as well as a process for their production” (priority 2003, published 2005).

Experiments:
[1] = cited from earlier work
[2] = Physical storage stability of aqueous Ifosfamide concentrates with Mesna as solubility-enhancing agent; assay type: physicochemical; details: Mesna as solubility-enhancing agent in Ifosfamide concentrates
Protocol: The ratios refer to the proportions by weight of the substances in the solution. The solutions are homogenized, sterilized by filtration and filled under aseptic conditions. Production is carried out under nitrogen. These solutions can also be lyophilized in order to obtain a longer storage life of the pharmaceutical preparation. In addition to the auxiliary agents that are set forth in the examples, the solution can contain also further substances, e.g. sodium chloride, Mannitol, lactose, polyethylenglycol, ethanol, glucose, disaccharide, cyclodextrine.
In the manufacture, 90% of the Water for Injection is cooled to about 5° C. to 10° C., to which is dissolved the phosphate buffer; the Mesna is subsequently added and is homogeneously dissolved. […] The solution so obtained is brought to the specified weight with the cooled Water for Injection, sterile-filtered and filled in injection vials under aseptic conditions. Sterilization and filling are not carried out under cooling.
The making of Examples 4, 5 and 6 is carried out analogously to the description of Example 1.

Row | SMILES | solubility in water (saturation concentration) ([1]; water, room temperature) | solubility of Ifosfamide lowered by addition of auxiliary agents ([1]; with auxiliary agents added) | physical stabilization of Ifosfamide solution [2]
1 | O=P1(NCCCl)OCCCN1CCCl (stereo not drawn) [Ifosfamide, 2-(chlorethylamino)-3-(2-chlorethyl)-tetrahydro-2H-1,3,2-oxazaphosphorin-2-oxide] | about 140 mg/mL | under 10 % (wt/vol) | 
2 | O=S(=O)(O)CCS [Mesna, mercaptoethane sulfonate-sodium] |  |  | prevents crystallization
